We go through 23 molecules from patent US10040781B2, “Tank-binding kinase inhibitor compounds” (Gilead Sciences, Inc., priority 2014, dated 2018).

pIC50: −log10 of the molar value. Read-outs that look alike come from different tables or passages of the source.

One test concerns the target hJAK2 (Homo sapiens (Human), UniProt O60674). The test is described as follows: hJAK2 LANCE TR-FRET enzymatic assay. Type of test: biochemical. The note with it: read-out: JAK2 IC50. In general terms: Time-resolved FRET reads energy transfer from a long-lived donor to a nearby acceptor.
The next test has as its target TBK1 (Homo sapiens (Human), UniProt Q9UHD2). The test is described as follows: TBK1 TR-FRET enzymatic assay.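 Further: phosphorylation of a biotinylated Ser/Thr peptide by purified full-length recombinant TBK1, read by TR-FRET after 240 min at 25 °C, IC50 is the geometric mean of at least four runs.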

Chain of TBK1 (Q9UHD2 whole entry): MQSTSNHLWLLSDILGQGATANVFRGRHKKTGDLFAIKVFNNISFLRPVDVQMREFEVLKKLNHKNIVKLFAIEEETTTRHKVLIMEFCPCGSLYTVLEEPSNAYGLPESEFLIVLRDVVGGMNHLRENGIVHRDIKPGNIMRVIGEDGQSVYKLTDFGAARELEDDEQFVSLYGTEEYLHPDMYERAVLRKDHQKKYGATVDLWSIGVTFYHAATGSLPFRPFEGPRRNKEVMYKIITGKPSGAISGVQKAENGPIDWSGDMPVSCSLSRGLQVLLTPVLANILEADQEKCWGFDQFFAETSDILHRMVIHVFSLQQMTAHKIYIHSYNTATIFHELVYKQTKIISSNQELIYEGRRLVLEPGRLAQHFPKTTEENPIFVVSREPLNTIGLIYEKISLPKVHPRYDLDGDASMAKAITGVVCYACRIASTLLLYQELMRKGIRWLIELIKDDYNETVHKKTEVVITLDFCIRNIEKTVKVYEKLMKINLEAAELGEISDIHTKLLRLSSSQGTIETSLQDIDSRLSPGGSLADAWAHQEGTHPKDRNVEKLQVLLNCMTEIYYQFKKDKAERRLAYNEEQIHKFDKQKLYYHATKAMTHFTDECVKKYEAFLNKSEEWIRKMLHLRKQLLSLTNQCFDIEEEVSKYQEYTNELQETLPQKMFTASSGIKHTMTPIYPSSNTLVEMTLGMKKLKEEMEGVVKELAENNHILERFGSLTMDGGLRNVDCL
Chain of hJAK2 (O60674 whole entry): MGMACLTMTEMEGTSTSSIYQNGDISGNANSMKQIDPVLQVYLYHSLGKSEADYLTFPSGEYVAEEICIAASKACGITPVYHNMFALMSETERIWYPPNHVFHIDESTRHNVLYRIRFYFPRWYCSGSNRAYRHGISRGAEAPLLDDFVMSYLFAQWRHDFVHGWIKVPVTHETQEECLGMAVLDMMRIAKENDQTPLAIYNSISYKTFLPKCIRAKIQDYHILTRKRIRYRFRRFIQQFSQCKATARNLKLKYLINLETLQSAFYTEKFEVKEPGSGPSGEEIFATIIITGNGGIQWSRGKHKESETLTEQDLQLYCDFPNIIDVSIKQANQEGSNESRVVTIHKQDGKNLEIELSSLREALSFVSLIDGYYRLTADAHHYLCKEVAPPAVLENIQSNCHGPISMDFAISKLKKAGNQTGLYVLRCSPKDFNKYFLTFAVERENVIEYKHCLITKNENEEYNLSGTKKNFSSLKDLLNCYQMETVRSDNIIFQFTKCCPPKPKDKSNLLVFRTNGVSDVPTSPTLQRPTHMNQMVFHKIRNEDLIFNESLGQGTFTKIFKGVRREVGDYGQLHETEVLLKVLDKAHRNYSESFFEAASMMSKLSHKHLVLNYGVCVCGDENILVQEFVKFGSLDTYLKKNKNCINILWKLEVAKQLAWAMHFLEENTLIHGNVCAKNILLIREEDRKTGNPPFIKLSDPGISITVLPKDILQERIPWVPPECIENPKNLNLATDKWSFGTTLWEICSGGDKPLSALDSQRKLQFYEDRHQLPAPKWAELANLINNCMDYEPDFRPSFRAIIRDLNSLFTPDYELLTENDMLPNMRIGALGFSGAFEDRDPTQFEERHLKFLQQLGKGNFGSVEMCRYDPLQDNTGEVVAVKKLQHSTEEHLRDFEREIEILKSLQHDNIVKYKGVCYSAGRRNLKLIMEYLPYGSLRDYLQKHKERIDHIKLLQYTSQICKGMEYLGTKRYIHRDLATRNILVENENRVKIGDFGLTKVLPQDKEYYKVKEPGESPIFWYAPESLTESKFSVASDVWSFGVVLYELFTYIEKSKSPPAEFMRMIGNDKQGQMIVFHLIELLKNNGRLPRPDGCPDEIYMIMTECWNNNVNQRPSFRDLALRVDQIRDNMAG

The pIC50 is the IC50 on a negative log10 scale, so that one unit is a factor of ten. On to `N#Cc1cc(-c2ncnc(Nc3ccc(N4CCN(C5COC5)CC4)cc3)n2)ccc1O[C@@H]1CCN(C(=O)CO)C1` [Example 30, (R)-2-((1-(2-hydroxyacetyl)pyrrolidin-3-yl)oxy)-5-(4-((4-(4-(oxetan-3-yl)piperazin-1-yl)phenyl)amino)-1,3,5-triazin-2-yl)benzonitrile], for which the results for the pIC50 on hJAK2 and at TBK1 were 6.41 and 8.52, respectively.
On the same counts, the results for `N#CCC(=O)N1CCC(Oc2ccc(-c3ncnc(Nc4ccc(N5CCN(C6COC6)CC5)cc4)n3)cc2C#N)CC1` [Example 44, 2-((1-(2-cyanoacetyl)piperidin-4-yl)oxy)-5-(4-((4-(4-(oxetan-3-yl)piperazin-1-yl)phenyl)amino)-1,3,5-triazin-2-yl)benzonitrile] are 6.35 and 8.05.
With `CS(=O)(=O)c1ccc(Nc2ncnc(-c3ccc(OC4CCOCC4)c(C#N)c3)n2)cc1` [Example 50, 5-(4-((4-(methylsulfonyl)phenyl)amino)-1,3,5-triazin-2-yl)-2-((tetrahydro-2H-pyran-4-yl)oxy)benzonitrile], the pIC50 at hJAK2 is below 6.00; at TBK1 it was 8.30.
Consider `N#Cc1cc(-c2ncnc(Nc3cccc(N4CCOCC4)c3)n2)ccc1O[C@@H]1CCN(C(=O)CO)C1` [Example 81, (R)-2-((1-(2-hydroxyacetyl)pyrrolidin-3-yl)oxy)-5-(4-((3-morpholinophenyl)amino)-1,3,5-triazin-2-yl)benzonitrile], for which the pIC50 at hJAK2 is 6.54; against TBK1 it was 7.57.
For `N#Cc1cc(-c2ncnc(Nc3ccc(C(N)=O)cc3)n2)ccc1O[C@@H]1CCN(C(=O)CO)C1` [Example 85, (R)-4-((4-(3-cyano-4-((1-(2-hydroxyacetyl)pyrrolidin-3-yl)oxy)phenyl)-1,3,5-triazin-2-yl)amino)benzamide], the pIC50 was 6.17 at hJAK2 and 7.89 against TBK1.
Regarding `N#Cc1cc(-c2ncnc(Nc3ccc(N4CCN(C5COC5)CC4)cc3)n2)ccc1O[C@H]1CCN(C(=O)c2nnc[nH]2)CC1(F)F` [Example 166, (S)-2-((3,3-difluoro-1-(4H-1,2,4-triazole-3-carbonyl)piperidin-4-yl)oxy)-5-(4-((4-(4-(oxetan-3-yl)piperazin-1-yl)phenyl)amino)-1,3,5-triazin-2-yl)benzonitrile], the pIC50 was 7.28 at hJAK2 and 8.70 against TBK1.
With `N#Cc1cc(-c2ncnc(Nc3ccc(N4CCO[C@@H](CO)C4)cc3)n2)ccc1O[C@H]1CCN(C(=O)CO)C[C@H]1F` [Example 229, 2-(((3R,4S)-3-fluoro-1-(2-hydroxyacetyl)piperidin-4-yl)oxy)-5-(4-((4-((R)-2-(hydroxymethyl)morpholino)phenyl)amino)-1,3,5-triazin-2-yl)benzonitrile], the pIC50 on hJAK2 is 6.72; at TBK1 it was 9.00.
For `C[C@H](O)C(=O)N1CC[C@@H](Oc2ccc(-c3ncnc(Nc4ccc(N5CCN(C6COC6)[C@H](C)C5)cc4)n3)cc2C#N)C(F)(F)C1` [Example 245, 2-(((R)-3,3-difluoro-1-((S)-2-hydroxypropanoyl)piperidin-4-yl)oxy)-5-(4-((4-((R)-3-methyl-4-(oxetan-3-yl)piperazin-1-yl)phenyl)amino)-1,3,5-triazin-2-yl)benzonitrile], the pIC50 on hJAK2 was 6.64; against TBK1, 7.77.
For the molecule `C[C@H]1CN(C2COC2)CCN1c1ccc(Nc2ncnc(-c3ccc(O[C@H]4CCN(C(=O)c5nnc[nH]5)CC4(F)F)c(C#N)c3)n2)cc1` [Example 260, 2-(((S)-3,3-difluoro-1-(4H-1,2,4-triazole-3-carbonyl)piperidin-4-yl)oxy)-5-(4-((4-((S)-2-methyl-4-(oxetan-3-yl)piperazin-1-yl)phenyl)amino)-1,3,5-triazin-2-yl)benzonitrile], the pIC50 on hJAK2 was 7.38; against TBK1, 8.70.
As to `C[C@H]1CN(c2ccc(Nc3ncnc(-c4ccc(O[C@H]5CCN(C(=O)CO)CC5(F)F)c(C#N)c4)n3)cc2)CCN1C1COC1` [Example 261, 2-(((S)-3,3-difluoro-1-(2-hydroxyacetyl)piperidin-4-yl)oxy)-5-(4-((4-((S)-3-methyl-4-(oxetan-3-yl)piperazin-1-yl)phenyl)amino)-1,3,5-triazin-2-yl)benzonitrile], the values for the negative logarithm of the IC50 (pIC50) on hJAK2 and at TBK1 were 7.34 and 9.00, respectively.
On to `CC(=O)N1CC[C@H](Oc2ccc(-c3ncnc(Nc4ccc(C5CCNCC5)cc4)n3)cc2C#N)C(F)(F)C1` [Example 301, (S)-2-((1-acetyl-3,3-difluoropiperidin-4-yl)oxy)-5-(4-((4-(piperidin-4-yl)phenyl)amino)-1,3,5-triazin-2-yl)benzonitrile], for which the negative-log IC50 (pIC50) on hJAK2 was 6.51; against TBK1, 8.52.
The matching figures for `CC(=O)N1CC[C@H](Oc2ccc(-c3ncnc(Nc4ccc(C5CCN(C)CC5)cc4)n3)cc2C#N)C(F)(F)C1` [Example 302, (S)-2-((1-acetyl-3,3-difluoropiperidin-4-yl)oxy)-5-(4-((4-(1-methylpiperidin-4-yl)phenyl)amino)-1,3,5-triazin-2-yl)benzonitrile]: 6.76 and 8.70.
Consider `Cc1cc(Nc2ncnc(-c3ccc(O[C@H]4CCN(C=O)CC4(F)F)c(C#N)c3)n2)ccc1C1CCNCC1` [Example 303, (S)-2-((3,3-difluoro-1-formylpiperidin-4-yl)oxy)-5-(4-((3-methyl-4-(piperidin-4-yl)phenyl)amino)-1,3,5-triazin-2-yl)benzonitrile], for which the pIC50 on hJAK2 was 6.54; at TBK1, 9.00.
`Cc1cc(Nc2ncnc(-c3ccc(O[C@H]4CCN(C=O)CC4(F)F)c(C#N)c3)n2)ccc1C1CCN(C)CC1` [Example 304, (S)-2-((3,3-difluoro-1-formylpiperidin-4-yl)oxy)-5-(4-((3-methyl-4-(1-methylpiperidin-4-yl)phenyl)amino)-1,3,5-triazin-2-yl)benzonitrile]: the pIC50 at hJAK2 is at most 6.00; against TBK1 it was 8.70.
Consider `N#Cc1cc(-c2ncnc(Nc3ccc(C4CCN(C5COC5)CC4)cc3)n2)ccc1O[C@H]1CCN(C(=O)CO)C[C@H]1F` [Example 305, 2-(((3R,4S)-3-fluoro-1-(2-hydroxyacetyl)piperidin-4-yl)oxy)-5-(4-((4-(1-(oxetan-3-yl)piperidin-4-yl)phenyl)amino)-1,3,5-triazin-2-yl)benzonitrile], for which the pIC50 on hJAK2 was 6.53; at TBK1, 8.70.
In the case of `N#Cc1cc(-c2ncnc(Nc3ccc(C4CCN(C5COC5)CC4)cc3)n2)ccc1O[C@H]1CCN(C(=O)c2ccn[nH]2)C[C@H]1F` [Example 318, 2-(((3R,4S)-3-fluoro-1-(1H-pyrazole-5-carbonyl)piperidin-4-yl)oxy)-5-(4-((4-(1-(oxetan-3-yl)piperidin-4-yl)phenyl)amino)-1,3,5-triazin-2-yl)benzonitrile], the pIC50 at hJAK2 is at most 6.00; at TBK1, 8.70.
For the molecule `COc1cc(Nc2ncnc(-c3ccc(O[C@H]4CCN(C(=O)CO)C[C@H]4F)c(C#N)c3)n2)ccc1N1CCC(N2CCOCC2)CC1` [Example 325, 2-(((3R,4S)-3-fluoro-1-(2-hydroxyacetyl)piperidin-4-yl)oxy)-5-(4-((3-methoxy-4-(4-morpholinopiperidin-1-yl)phenyl)amino)-1,3,5-triazin-2-yl)benzonitrile], the values for the pIC50 on hJAK2 and against TBK1 were 7.55 and 8.70, respectively.
As to `C[C@H](O)C(=O)N1CC[C@H](Oc2ccc(-c3ncnc(Nc4ccc(N5C6COCC5C6)cc4)n3)cc2C#N)[C@H](F)C1` [Example 366, 5-(4-((4-(3-oxa-6-azabicyclo[3.1.1]heptan-6-yl)phenyl)amino)-1,3,5-triazin-2-yl)-2-(((3R,4S)-3-fluoro-1-((S)-2-hydroxypropanoyl)piperidin-4-yl)oxy)benzonitrile], the figures for the pIC50 on hJAK2 and on TBK1 (TBK1 IC50) were 6.27 and 8.52, respectively.
As for `N#CCC(=O)N1CC[C@H](Oc2ccc(-c3ncnc(Nc4ccc(N5CCN(C6COC6)CC5)c(F)c4)n3)cc2C#N)[C@H](F)C1` [Example 404, 2-(((3R,4S)-1-(2-cyanoacetyl)-3-fluoropiperidin-4-yl)oxy)-5-(4-((3-fluoro-4-(4-(oxetan-3-yl)piperazin-1-yl)phenyl)amino)-1,3,5-triazin-2-yl)benzonitrile], the pIC50 on hJAK2 was 6.34; at TBK1, 8.52.
On the same counts, the results for `Cc1nnc(C(=O)N2CC[C@H](Oc3ccc(-c4ncnc(Nc5ccc(C6CCN(C)CC6)c(C)c5)n4)cc3C#N)[C@H](F)C2)[nH]1` [Example 490, 2-(((3R,4S)-3-fluoro-1-(5-methyl-4H-1,2,4-triazole-3-carbonyl)piperidin-4-yl)oxy)-5-(4-((3-methyl-4-(1-methylpiperidin-4-yl)phenyl)amino)-1,3,5-triazin-2-yl)benzonitrile] are 7.11 and 8.52.
Regarding `COc1cc(Nc2ncnc(-c3ccc(O[C@H]4CCN(C(=O)[C@@H](O)CO)C[C@H]4F)c(C#N)c3)n2)ccc1N1CCN(C2COC2)CC1` [Example 578, 2-(((3R,4S)-1-((S)-2,3-dihydroxypropanoyl)-3-fluoropiperidin-4-yl)oxy)-5-(4-((3-methoxy-4-(4-(oxetan-3-yl)piperazin-1-yl)phenyl)amino)-1,3,5-triazin-2-yl)benzonitrile], on hJAK2, the pIC50 is 7.15.
The same measure, in the same setting: under `COc1cc(Nc2ncnc(-c3ccc(O[C@H]4CCN(C(=O)[C@H](O)CO)C[C@H]4F)c(C#N)c3)n2)ccc1N1CCN(C2COC2)CC1` [Example 579, 2-(((3R,4S)-1-((R)-2,3-dihydroxypropanoyl)-3-fluoropiperidin-4-yl)oxy)-5-(4-((3-methoxy-4-(4-(oxetan-3-yl)piperazin-1-yl)phenyl)amino)-1,3,5-triazin-2-yl)benzonitrile] stands 7.32; under `C[C@H](O)C(=O)N1CC[C@H](Oc2ccc(-c3ncnc(Nc4ccc(N5CCN6CCOC[C@H]6C5)cc4)n3)cc2C#N)[C@H](F)C1` [Example 619, 2-(((3R,4S)-3-fluoro-1-((S)-2-hydroxypropanoyl)piperidin-4-yl)oxy)-5-(4-((4-((R)-hexahydropyrazino[2,1-c][1,4]oxazin-8(1H)-yl)phenyl)amino)-1,3,5-triazin-2-yl)benzonitrile], 6.44.
